Source: patent US20230184743A1, “SCREENING METHODS TO IDENTIFY SMALL MOLECULE COMPOUNDS THAT PROMOTE OR INHIBIT THE GROWTH OF CIRCULATING TUMOR CELLS, AND USES THEREOF” (University of Southern California, priority 2020, published 2023)
Entries after “also recorded” stand apart in the source; their conditions may differ.

Assays:
[1] = test system: CTC lines (BRx42, BRx50 and BRx68) spiked into healthy donors' blood; experiment: Spike-in experiment: growth of CTCs isolated from spiked healthy donors' blood; assay type: cell-based, human; details: RosetteSep isolated, cultured 20 days
Procedure: Spike-in experiment. Healthy volunteers' blood samples were collected. GFP-positive CTC lines (50 cells/mL) were spiked into the blood samples from healthy volunteers, and RosetteSep™ CTC Enrichment Cocktail Containing […] was used to enrich CTCs from spiked-in samples. Isolated CTCs were cultured in GravityTRAP™ ULA Plate 96 wells. Each patient CTC cell line was processed by 2 different researchers.
Validation on spiked-in CTCs. To mimic the CTC isolation procedure, spiked-in experiments were performed with 3 CTC lines (BRx42, BRx50 and BRx68) into healthy donors' blood. The RosettSep CTC isolation method was used to isolate the spiked CTCs, and separated isolated CTCs equally into wells with control media or with NAC or NAC plus P1C2. […] This confirmed the effects of these compounds on expanding CTCs that have been processed through an isolation procedure. NAC single cell clones form tumors with similar kinetics as controls. It was noticed that the most critical phase is the initial expansion from single CTCs. […] Therefore, treatment of these compounds was stopped at 24 days, and then prolonged the culture to generate several single cell clones. To evaluate the tumorigenicity of the single cell clones, GFP-Luciferase tagged BRx68 single clones generated with NAC treatment or control clones were injected into the mammary fat pats of female NSG mice.

[2] = test system: single BRx68 cells; experiment: Single CTC proliferation over 24 days (AUC), BRx68 line; assay type: cell-based, human; details: two batches, 200 μM-300 μM NAC, 24 days
Procedure: Cell culture. CTC lines were previously derived from metastatic breast cancer patients. CTC lines were cultured in ultra-low attachment plates with RPMI 1640 medium, supplemented with EGF (20 ng/mL), bFGF (20 ng/mL), 1×B27 and 1× antibiotic/antimycotic, in 4% 02 and 5% CO2. Single CTCs were cultured in GravityTRAP™ ULA 96 well Plates (PerkinElmer). Wells on the edges of the plates were not used to avoid influence from evaporation. Media with fresh compounds were exchanged every 3 days by inserting pipet tips onto the platform of the wells to prevent accidentally aspirating suspended CTCs at the bottom. CTC numbers were counted manually under an inverted microscope every 6 days.
FACS sorting. […]
Statistical analysis. […] AUC was calculated for each well in each batch, by plotting days in the x-axis and the corresponding number of cells in the y-axis, then drawing a line to connect the number of cells from the starting count day to the next count day until the end day, and finally calculating the area under this line as the sum of areas of trapezoids. […] Statistical tests were performed using R. For absolute number of cells quantification, total number of cells at end of experiment in each well in each batch was compared between treated cells and untreated control and significance was analyzed with Student t test. […]

[3] = test system: GFP-Luciferase tagged BRx68 single clones; experiment: Xenograft assay of single cell clones generated with or without NAC; assay type: in vivo; details: clones generated with 300 μM NAC for 24 days vs control clones; mammary fat pad of female NSG mice
Procedure: Single CTC clones. NAC clones were generated by treating single CTCs with 300 μM NAC media for 24 days before switching to regular CTC media. Control single clone lines were established in the same batch using regular CTC media.
Xenograft assay and Hematoxyline & Eosin staining. Six-week old female NSG mice (Jackson Laboratory) were anesthetized with isoflurane and 20,000 GFP/luc-positive single clone cells in 100 μL of 1:1 PBS and Corning® Matrigel® Matrix (phenol-red free) were injected into the fourth mammary fat pad. To evaluate the growth of primary tumors, mice were intraperitoneally injected with 150 μL of d-Luciferin substrate at 30 mg/mL (Sid Labs), and imaged within 15 minutes. Signals from luciferase-tagged cells were monitored at day 0 after injection and weekly by in vivo imaging using IVIS Lumina II (Perkin Elmer) for 5 weeks. Mice were sacrificed after 8 weeks, and their organs were dissected and imaged. Primary tumors and organs were collected and fixed with 10% formalin overnight and sectioned for 5 μm thickness. H&E staining was performed using Varistain Gemini ES Automated Slide Stainer in USC's Histology Laboratory (HIST). Images were taken with a 20× objective in Keyence (BZ-II Analyser, Keyence).
Validation on spiked-in CTCs. To mimic the CTC isolation procedure, spiked-in experiments were performed with 3 CTC lines (BRx42, BRx50 and BRx68) into healthy donors' blood. […]

[4] = test system: Glutathione (GSH) in BRx68 cells; experiment: Glutathione measurement; assay type: cell-based, human; details: 300 μmol/L NAC
Procedure: Glutathione measurement. A total of 1×10^6 BRx68 cells were cultured with or without 300 μmol/L NAC for 6 or 13 days. At the end of incubation periods, cells were washed in ice cold PBS, lysed in 5% 5-sulfo-salicylic acid dehydrate by vortexing and repeating cycles of freeze-thaw, then centrifuged at 14,000 rpm for 10 minutes and supernatant was transferred to clean tubes. Glutathione (GSH) was measured using a GSH Colorimetric Detection Kit (Invitrogen) following the manufacturer's instructions.

With `CC(=O)N[C@@H](CS)C(=O)O` [NAC, N-acetyl-L-cysteine] the “growth of isolated CTCs compared to the control condition” value [1] was “promote growth of small numbers of CTCs; also recorded: significantly increased”, the “single CTC proliferation at various NAC concentrations” value [2] was “most significant effect in promoting single CTC proliferation” and the “tumorigenicity of single cell clones (tumor growth kinetics and histology)” value [3] was “dose not change the tumorigenicity; also recorded: did not significantly affect”. For the same compound, the “total GSH level in NAC treated cells vs untreated control cells” value ([4]; day 6) was 44.42±5.165 and the “total GSH level in NAC treated cells vs untreated control cells” value ([4]; day 13) was “not at day 13”.
